Assay results taken from patent publication US10865216B2, “Tricyclic Gyrase inhibitors” (MERCK SHARP & DOHME CORP., priority 2012, dated 2020).
Converted amounts (≈) assume the structure as drawn. Where two headings read alike, the source gives them in different places.

Tests used:
S. aureus ATCC 13709 = test: MIC, S. aureus ATCC 13709; assay type: cell-based; details: for MIC: Staphylococcus aureus
E. coli ATCC 25922 = test: MIC, E. coli ATCC 25922; assay type: cell-based; details: for MIC: Escherichia coli
[1] = ATCC13709, S. aureus, Alamar Blue read after overnight incubation at 35° C., read-out: MIC Sa
[2] = ATCC25922, E. coli, Alamar Blue read after overnight incubation at 35° C., read-out: MIC Ec
[3] = S. aureus, Alamar Blue read after overnight incubation at 35° C.
[4] = E. coli, Alamar Blue read after overnight incubation at 35° C.

Row | Structure (SMILES) | MIC (S. aureus ATCC 13709; [1]) [µg/mL] | MIC (E. coli ATCC 25922; [2]) [µg/mL] | MIC Sa (S. aureus ATCC 13709; [3]) [µg/mL] | MIC Ec (E. coli ATCC 25922; [4]) [µg/mL] | further results
1 | CNc1cccc2c1[nH]c1nc(Oc3cncnc3)cc(N3CCN(CCN)CC3)c12 [Compound 3.56] | > 64 | > 64 | – | – | –
2 | CNc1cccc2c1[nH]c1nc(Oc3cncnc3)cc(N3CC4C(C3)C4NCC3CC3)c12 (centres unmarked) [Compound 3.13] | ≤ 0.5 | 1 (≈ 2.26 µM) | – | – | –
3 | CNc1cccc2c1[nH]c1nc(Sc3cnc4cccnc4c3)nc(N3CCC(CN)C3)c12 (centres unmarked) [Compound 1.48] | ≤ 0.5 | 2 (≈ 4.38 µM) | – | – | –
4 | COc1cccc2c1[nH]c1nc(Oc3cncnc3)nc(N3CCC(NC(C)=O)C3)c12 (centres unmarked) [Compound 2.11] | – | – | 4 (≈ 9.54 µM) | >64 | –
5 | CNc1cccc2c1[nH]c1nc(Oc3cncnc3)cc(N3CCN(Cc4ccccn4)CC3)c12 [Compound 3.54] | 8 (≈ 17.1 µM) | > 32 | – | – | –
6 | CNc1cccc2c1[nH]c1nc(Oc3cnc(C)nc3)cc(N3C[C@H](NC)C4(CC4)C3)c12 [Compound 3.49] | ≤ 0.5 | ≤ 0.5 | – | – | –
7 | CCc1cc(F)cc2c1[nH]c1nc(Oc3cnc(C)nc3)nc(N3CC4CC(N)C4C3)c12 (centres unmarked) [Compound 2.4] | – | – | ≤0.5 | 1 (≈ 2.31 µM) | –
8 | CNc1cccc2c1[nH]c1nc(Oc3cncc(C#N)c3)cc(N3C[C@@H](NC)C4(CC4)C3)c12 [Compound 3.44] | 8 (≈ 18.2 µM) | 16 (≈ 36.4 µM) | – | – | –
9 | CNc1cccc2c1[nH]c1nc(Oc3cncc(F)c3)cc(N3CC4C(N)C4C3)c12 (centres unmarked) [Compound 3.33] | ≤ 0.5 | 1 (≈ 2.47 µM) | – | – | –
10 | CNc1cc(F)c(Cl)c2c1[nH]c1nc(Oc3cnc([C@@H](C)O)nc3)nc(N3C[C@H]4C[C@@H]3C[C@H]4N)c12 [Compound 10.87] | – | – | – | – | MIC Sa (S. aureus ATCC 13709; Table 18, Sa): ≤ 0.5 µg/mL; MIC Ec (E. coli ATCC 25922; Table 18, Ec): ≤ 0.5 µg/mL
11 | CNc1cccc2c1[nH]c1nc(Oc3cncc(C(=O)O)c3)cc(N3CC4C(N)C4C3)c12 (centres unmarked) [Compound 3.20] | > 8 | > 8 | – | – | –
12 | Nc1cccc2c1[nH]c1nc(Oc3cnc4cccnc4c3)nc(N3CC4C(N)C4C3)c12 (centres unmarked) [Compound 2.8] | – | – | 16 (≈ 37.7 µM) | >64 | –
13 | CNc1cc(F)cc2c1[nH]c1nc(Oc3ccc4ccnn4c3)nc(N3C[C@H]4C[C@@H]3C[C@H]4N)c12 [Compound 10.50] | – | – | – | – | MIC Sa (S. aureus ATCC 13709; Table 18, Sa): ≤ 0.5 µg/mL; MIC Ec (E. coli ATCC 25922; Table 18, Ec): ≤ 0.5 µg/mL
14 | CNc1cc(F)cc2c1[nH]c1nc(Sc3cnc4cccnc4c3)nc(N3CC4C(N)C4C3)c12 (centres unmarked) [Compound 1.51] | ≤ 0.5 | ≤ 0.5 | – | – | –
15 | CNc1cccc2c1[nH]c1nc(Sc3cnc4ccc[n+]([O-])c4c3)nc(N3CCC4(CC4N)C3)c12 (centres unmarked) [Compound 1.39] | – | – | ≤0.5 | 1 (≈ 2.06 µM) | –
16 | CNc1cccc2c1[nH]c1nc(Sc3cnc4ccc[n+]([O-])c4c3)nc(N3CC[C@H](N)C3)c12 [Compound 1.14] | ≤ 0.5 | 1 (≈ 2.18 µM) | – | – | –
17 | CNc1cc(F)cc2c1[nH]c1nc(Oc3cnc(C)nc3)nc(N3CCC(C)(CN)C3)c12 (centres unmarked) | – | – | – | – | MIC (S. aureus ATCC 13709; ATCC13709, Table 16, new R4 substituents, read-out: SA MIC): ≤ 0.5 µg/mL; MIC (E. coli ATCC 25922; ATCC25922, Table 16, new R4 substituents, EC8 not defined, read-out: EC8 MIC): ≤ 0.5 µg/mL
18 | CCc1cc(F)cc2c1[nH]c1nc(Oc3cncnc3)nc(N3CC4C(N)C4C3)c12 (centres unmarked) [Compound 2.2] | – | – | 2 (≈ 4.93 µM) | 4 (≈ 9.87 µM) | –

Continued, in another order:

Row | MIC (S. aureus ATCC 13709; [1]) [µg/mL] | MIC (E. coli ATCC 25922; [2]) [µg/mL] | MIC Sa (S. aureus ATCC 13709; [3]) [µg/mL] | MIC Ec (E. coli ATCC 25922; [4]) [µg/mL] | Structure (SMILES) | further results
19 | > 16 | > 16 | – | – | Cc1ncc(Oc2nc(N3C[C@H](NC(=O)CN)C4(CC4)C3)c3c(n2)[nH]c2c(N(C)C(=O)CN)cc(F)cc23)cn1 [Compound 4.427] | –
20 | – | – | ≤0.5 | 4 (≈ 8.45 µM) | CNc1cc(F)cc2c1[nH]c1nc(Oc3ccc4c(c3)C(=O)NC4)nc(N3CC4CCNC4C3)c12 (centres unmarked) [Compound 4.269] | –
21 | – | – | ≤0.5 | 2 (≈ 4.19 µM) | CNc1cc(F)cc2c1[nH]c1nc(Oc3cnc(N4CC(O)C4)nc3)nc(N3CC4C(N)C4C3)c12 (centres unmarked) [Compound 4.298] | –
22 | – | – | ≤0.5 | 1 (≈ 2.05 µM) | CNc1cc(F)cc2c1[nH]c1nc(Oc3cncc(-c4nnn(C)n4)c3)nc(N3CC4C(N)C4C3)c12 (centres unmarked) [Compound 4.210] | –
23 | – | – | ≤0.5 | 2 (≈ 4.58 µM) | CNc1cc(F)cc2c1[nH]c1nc(Oc3cnc(C)nc3)nc(N3CCCC(N)CC3)c12 (centres unmarked) [Compound 4.071] | –
24 | ≤ 0.5 | ≤ 0.5 | – | – | CNc1cc(F)cc2c1[nH]c1nc(Oc3cnc(CF)nc3)nc(N3C[C@H]4CC3C[C@H]4N)c12 [Compound 4.443] | –
25 | – | – | ≤0.5 | 1 (≈ 1.92 µM) | CNc1cc(F)cc2c1[nH]c1nc(Oc3cnc(NCC4CCCO4)nc3)nc(N3C[C@H](N)C4(CC4)C3)c12 (some centres unmarked) [Compound 4.406] | –
26 | – | – | ≤0.5 | ≤0.5 | CNc1cc(F)cc2c1[nH]c1nc(Oc3cncc(F)c3)nc(N3CC(N)C4(CC4)C3)c12 (centres unmarked) [Compound 4.056] | –
27 | – | – | ≤0.5 | ≤0.5 | CNc1cc(F)cc2c1[nH]c1nc(Oc3cnc4cccnc4c3)nc(N3CC4CC4(N)C3)c12 (centres unmarked) [Compound 4.036] | –
28 | – | – | ≤0.5 | ≤0.5 | CNc1cc(F)cc2c1[nH]c1nc(Oc3cnc(C)nc3)nc(N3CCC(C4(N)CC4)C3)c12 (centres unmarked) [Compound 4.083] | –
